# pIC50: −log10 of the molar value.
# Target: NS3 (Hepatitis C virus, UniProt A3EZJ3)
# Test: In vitro antiviral activity against hepatitis C virus (HCV) NS3 protease using scintillation proximity assay
# Set-up: species or system Hepacivirus hominis
# Sequence of NS3 (A3EZJ3 whole entry): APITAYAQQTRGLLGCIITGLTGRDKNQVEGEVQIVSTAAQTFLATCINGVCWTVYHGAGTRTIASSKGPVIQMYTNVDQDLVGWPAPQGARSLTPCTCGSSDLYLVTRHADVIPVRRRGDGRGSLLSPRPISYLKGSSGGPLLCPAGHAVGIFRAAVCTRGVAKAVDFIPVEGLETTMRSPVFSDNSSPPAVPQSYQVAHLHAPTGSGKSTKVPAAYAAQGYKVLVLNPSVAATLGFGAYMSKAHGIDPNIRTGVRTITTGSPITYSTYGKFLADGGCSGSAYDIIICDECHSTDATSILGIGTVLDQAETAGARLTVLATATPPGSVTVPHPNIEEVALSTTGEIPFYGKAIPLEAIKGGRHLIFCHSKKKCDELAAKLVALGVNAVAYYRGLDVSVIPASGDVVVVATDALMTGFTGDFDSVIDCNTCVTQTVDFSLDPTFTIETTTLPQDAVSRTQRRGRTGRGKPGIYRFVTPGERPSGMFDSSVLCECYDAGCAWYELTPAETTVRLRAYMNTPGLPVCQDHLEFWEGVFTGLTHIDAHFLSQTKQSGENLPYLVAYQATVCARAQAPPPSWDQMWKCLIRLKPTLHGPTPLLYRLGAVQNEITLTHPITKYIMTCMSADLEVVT
row,SMILES,pIC50
1,O=C1C=C2C(=CCOC2OC(=O)c2ccc(Br)cc2)O1 (stereo not drawn),4.43
2,O=C1C=C2C(=CCOC2O)O1 (stereo not drawn) [PATULIN],4.61
3,CC(=O)OC1OCC=C2OC(=O)C=C21 (stereo not drawn),4.44
